Results: ChEMBL document CHEMBL3526096, “Species differences in biliary clearance and possible relevance of hepatic uptake and efflux transporters involvement” (Drug Metab Dispos, 2013)
One block for each compound: values may come before it.

Columns and labels:
[1] = Drug excretion in iv dosed rat assessed as compound excreted into bile; assay type: ADME, organism-based; conditions: read-out: Drug excretion
Homo sapiens [2] = assay: Total biliary clearance in human at 1 gm, iv after 8 hrs by T-tube method; assay type: ADME, organism-based, Bile; conditions: in vivo
[3] = Drug excretion in Sprague-Dawley rat assessed as compound excreted into bile at 300 mg/kg, iv; assay type: ADME, organism-based; design: dose 300 mg/kg, route intravenous; conditions: read-out: Drug excretion
[4] = Drug excretion in human assessed as compound excreted into bile at 1 gm, iv after 8 hrs by T-tube method; assay type: ADME, organism-based; conditions: read-out: Drug excretion
Rattus norvegicus [5] = assay: Total biliary clearance in Sprague-Dawley rat at 300 mg/kg, iv; assay type: ADME, organism-based, Bile; design: dose 300 mg/kg, route intravenous; conditions: in vivo
Homo sapiens [6] = assay: Unbound biliary clearance in human at 1 gm, iv after 8 hrs by T-tube method; assay type: ADME, organism-based, Bile; conditions: in vivo
Rattus norvegicus [7] = assay: Unbound biliary clearance in Sprague-Dawley rat at 300 mg/kg, iv; assay type: ADME, organism-based, Bile; design: dose 300 mg/kg, route intravenous; conditions: in vivo
[8] = Drug excretion in rat assessed as compound excreted into bile at 10 mg/kg, iv
[9] = Drug excretion in human assessed as compound excreted into bile at 400 mg, po after 24 hrs by T-tube method
Rattus norvegicus [10] = assay: Total biliary clearance in Sprague-Dawley rat at 20 mg/kg, iv; assay type: ADME, organism-based, Bile; design: dose 20 mg/kg, route intravenous; conditions: in vivo
Canis familiaris [11] = assay: Unbound biliary clearance in beagle dog at 20 mg/kg, iv; assay type: ADME, organism-based, Canis lupus familiaris, Bile; design: dose 20 mg/kg, route intravenous; conditions: in vivo
Homo sapiens [12] = assay: Total biliary clearance in iv dosed human after 6 to 8 hrs by duodenal perfusion method; assay type: ADME, organism-based, Bile; conditions: in vivo
[13] = Drug excretion in iv dosed human assessed as compound excreted into bile after 6 to 8 hrs by duodenal perfusion method; assay type: ADME, organism-based; conditions: read-out: Drug excretion
[14] = Drug excretion in Sprague-Dawley rat assessed as compound excreted into bile at 20 mg/kg, iv; assay type: ADME, organism-based; design: dose 20 mg/kg, route intravenous; conditions: read-out: Drug excretion
Rattus norvegicus [15] = assay: Unbound biliary clearance in Sprague-Dawley rat at 20 mg/kg, iv; assay type: ADME, organism-based, Bile; design: dose 20 mg/kg, route intravenous; conditions: in vivo
[16] = Drug excretion in beagle dog assessed as compound excreted into bile at 20 mg/kg, iv; assay type: ADME, organism-based, Canis lupus familiaris; design: dose 20 mg/kg, route intravenous; conditions: read-out: Drug excretion
Canis familiaris [17] = assay: Total biliary clearance in beagle dog at 20 mg/kg, iv; assay type: ADME, organism-based, Canis lupus familiaris, Bile; design: dose 20 mg/kg, route intravenous; conditions: in vivo
Homo sapiens [18] = assay: Unbound biliary clearance in iv dosed human after 6 to 8 hrs by duodenal perfusion method; assay type: ADME, organism-based, Bile; conditions: in vivo
[19] = Drug excretion in human assessed as compound excreted into bile; assay type: ADME; conditions: read-out: Drug excretion
[20] = Drug excretion in iv dosed dog assessed as compound excreted into bile; assay type: ADME, organism-based, Canis lupus familiaris; conditions: read-out: Drug excretion

Structure (SMILES): CC1=C(C(=O)O)N2C(=O)[C@@H](NC(=O)[C@H](N)c3ccccc3)[C@H]2SC1 [CEPHALEXIN ANHYDROUS]
dose excreted [1]: 32%

Structure (SMILES): O=C(O)c1cn(C2CC2)c2cc(N3CCNCC3)c(F)cc2c1=O [CIPROFLOXACIN]
dose excreted [8]: 10%
dose excreted at 24 h [9]: 0.5%

Structure (SMILES): CO/N=C(\C(=O)N[C@@H]1C(=O)N2C(C(=O)O)=C(CSc3nc(=O)c(=O)[nH]n3C)CS[C@H]12)c1csc(N)n1 [CEFTRIAXONE]
CL (Rattus norvegicus [10]): 0.0492 L/h/kg
CL free (Canis familiaris [11]): 0.1744 L/h/kg
CL (Homo sapiens [12]): 0.0042 L/h/kg
dose excreted [13]: 30%
dose excreted [14]: 62%
CL free (Rattus norvegicus [15]): 0.7638 L/h/kg
dose excreted [16]: 63%
CL (Canis familiaris [17]): 0.15 L/h/kg
CL free (Homo sapiens [18]): 0.056 L/h/kg

The next lines start with the values.

CL (Homo sapiens [2]): 0.00018 L/h/kg
dose excreted [3]: 25%
dose excreted at 8 h [4]: 0.5%
CL (Rattus norvegicus [5]): 0.131 L/h/kg
CL free (Homo sapiens [6]): 0.00048 L/h/kg
CL free (Rattus norvegicus [7]): 0.2576 L/h/kg
Structure (SMILES): CO[C@@]1(NC(=O)C(C(=O)O)c2ccc(O)cc2)C(=O)N2C(C(=O)O)=C(CSc3nnnn3C)CO[C@@H]21 (stereo partly specified) [MOXALACTAM]

dose excreted [1]: 61%
dose excreted [19]: 60%
dose excreted [20]: 97%
Structure (SMILES): N=C(N)N1CCC[C@@H](CNC(=O)C[C@H](NS(=O)(=O)c2ccc3ccccc3c2)C(=O)N(CC(=O)O)C2CC2)C1 [NAPSAGATRAN ANHYDROUS]
